Data as given in a melting point compilation (Tetko et al.; mined from patent text by program, amines drawn as free bases though some values may be those of a salt).

First: Cc1c(C)c2c(c(C)c1NCc1ccc3c(c1)OCO3)C(c1ccc(C(C)C)cc1)C(C)(C)O2 (stereo not given)
Second: O=C(C=Cc1cccnc1)N1CCc2c([nH]c3ccccc23)C1c1ccc2c(c1)OCO2 (stereo not given)
The melting point of the first is lower: 100 to 102 °C for the first, 240 °C for the second.

First: Cc1cc(N)c([N+](=O)[O-])cc1OC(F)F
Second: O=C1NCc2c1cccc2[N+](=O)[O-]
The melting point of the first is lower: 73 to 74 °C for the first, 235 to 237 °C for the second.

Compared with `CCOC(=O)C(C)(C)n1c(=O)[nH]c2cc(F)c(F)cc2c1=O`, `CCOC(=O)C=C(C)NC(=O)Nc1cc(C(=O)OC(C)C)c(Cl)cc1F` is lower in melting point: 166 to 168 °C for the first, 147 to 150 °C for the second.

First: CCCCC1(Cn2ccnc2)SCCS1
Second: CCCCC(=O)N(c1ccn(C)n1)C1CCCCC1
The melting point of the first is higher: 131 to 135 °C for the first, 97.5 to 98 °C for the second.

First: Cn1nc(-c2cccc(-n3ncc4cc(C(C)(C)C)cc(F)c4c3=O)c2CO)cc(Nc2ccn(C[C@@H](O)CO)n2)c1=O
Second: CCc1nc(C)n2nc(C(=O)O)nc2c1Cc1ccc(-c2ccccc2-c2nnn[nH]2)cc1
The melting point of the first is higher: 245 to 250 °C for the first, 194 to 198 °C for the second.

First: CC1=C(OS(=O)(=O)c2ccc(C)cc2)C(=O)C(C)O1 (stereo not given)
Second: CCc1nc2c(C)c(C#N)c(C)nc2n1-c1ccc(CCNC(=O)NS(=O)(=O)c2ccc(C)cc2)cc1
The melting point of the first is lower: 70 to 72 °C for the first, 133 °C for the second.

First: Cc1nn(-c2cccnc2)c(-c2cccc(Cl)c2)c1CC(=O)O
Second: CCOC(=O)Nc1c(-c2ccccc2)c2cc(Cl)ccc2n1C
The melting point of the first is higher: 163 °C for the first, 123 to 124 °C for the second.

Compared with `CC(Oc1ccc(OC(C)C(=O)O)cc1)C(=O)O` (stereo not given), `CC(=O)c1ccc(OCc2cncnc2)cc1OC(CCC(=O)O)c1ccccc1C` (racemic) is lower in melting point: 235 to 240 °C for the first, 142 to 144 °C for the second.

First: CCOC(=O)C(CC)C(=O)Nc1ccc(Br)cc1C (stereo not given)
Second: C=C(C)C(=O)Oc1cc(C(=O)OCC)cc(O)c1O
The melting point of the first is lower: 98 to 100 °C for the first, 106 to 108 °C for the second.

First: COc1ccc2cc3c(c(-c4ccc(C(F)(F)F)cc4)c2c1)CNC3=O
Second: COc1ccc2c([N+](=O)[O-])c(-c3ccc(OCc4ccccc4)cc3)[nH]c(=O)c2c1
The melting point of the first is lower: 219 to 221 °C for the first, 252 to 254 °C for the second.

`Fc1ccc(OC2CCN(CCc3c[nH]c4ccccc34)CC2)cc1` and `COc1ncccc1-c1[nH]c2ccccc2c1C1CCNCC1` cannot be ordered by melting point: 109 to 111 °C for the first, 110 to 115 °C for the second.

Compared with `CCC(CCNC(=O)C(C#N)=Cc1cc(O)c(O)c(OC)c1)NC(=O)C(C#N)=Cc1cc(O)c(O)c(OC)c1` (stereo not given), `CCCCCC(C)C(C)c1cc(O)c2c(c1)OC(C)(C)C1=C2CN(CC(=O)Nc2ccc(Cl)cc2)CC1` (stereo not given) is lower in melting point: 256 °C for the first, 159 to 160 °C for the second.

First: CCCn1nc2c(N)nc3ccccc3c2c1CCCc1cc(-c2cccnc2)no1
Second: Cc1c[nH]c2ccc(Nc3ncnc4cc(-c5ccccc5)sc34)cc12
The melting point of the first is lower: 192 to 193 °C for the first, 221 to 223 °C for the second.

First: CCCCOc1ccc(S(=O)(=O)N2CCN(C)CC2)cc1-c1nc2cc3nc[nH]c3cc2c(=O)[nH]1
Second: O=C1c2ccccc2S(=O)(=O)N1CCCCN1CCN(c2cc(O)cc3c2OCCO3)CC1
The melting point of the first is lower: 124 to 126 °C for the first, 179 to 181 °C for the second.

First: O=Cc1nn(-c2c(Cl)cc(C(F)(F)F)cc2Cl)cc1SC(F)(F)F
Second: NS(=O)(=O)c1cnc(-c2cn(-c3cc(C(F)(F)F)cc(-c4ccc(C(F)(F)F)cc4)n3)cn2)s1
The melting point of the first is lower: 79 to 81 °C for the first, > 266 °C for the second.

First: CN(C)c1ccc(OCC(=O)N[C@@H](CC(N)=O)C(=O)N[C@@H](Cc2ccccc2)[C@H](O)C(=O)N2CCC[C@H]2C(=O)NC(C)(C)C)cc1
Second: CCOc1ccc(NC(=O)NCCCOc2cccc(CN3CCCCC3)c2)cc1
The melting point of the first is lower: 102 to 104 °C for the first, 109 to 111 °C for the second.

First: COC(=O)C(=O)NCCSC(c1ccccc1)c1ccccc1
Second: O=C(O)c1ccc(Sc2ccccc2)cc1
The melting point of the first is lower: 88 to 89 °C for the first, 101 to 103 °C for the second.

First: O=C(O)c1ccc(OCCCCCCc2cccc(OCc3ccccc3)c2OCc2ccccc2)c(Cl)c1
Second: Cc1ccc2cccc(OCc3c(Cl)ccc(S(=O)(=O)N(C)Cc4cccc(C(N)=O)c4)c3Cl)c2n1
The melting point of the first is lower: 87 to 89 °C for the first, 208 °C for the second.

Compared with `CS(=O)c1ncc2ccc(=O)n(-c3ccccc3)c2n1` (stereo not given), `CS(=O)CC(=O)c1cccn1Cc1ccccc1` (stereo not given) is lower in melting point: 248 to 250 °C for the first, 95 to 97 °C for the second.

First: [O-][N+]1=C(c2ccccc2)C2=NCCN2c2cc(N3CCNCC3)ccc21
Second: CCOC(=O)C1=NN(c2cccc(Cl)c2)C(c2ccccc2)CC1 (stereo not given)
The melting point of the first is higher: 209 to 211 °C for the first, 125 to 126 °C for the second.

First: CC(C)[C@@H]1C[C@H](O)[C@H](CC2CCCCC2)NC1=O
Second: O=C(O)C(CC1CCCCC1)NS(=O)(=O)c1ccc(Cl)cc1 (racemic)
The melting point of the first is lower: 97 to 99 °C for the first, 127 to 129 °C for the second.

First: CN1Cc2c(C(=O)OC(C)(C)C)ncn2-c2cccc(Cl)c2C1=O
Second: CC(C)(C)OC(=O)CCc1nc(C(=O)OC(C)(C)C)ccc1O
The melting point of the first is higher: 188 to 190 °C for the first, 172 to 174 °C for the second.

First: O=C(CC(=O)C(F)(F)F)c1ccc(-c2ccco2)cc1
Second: CN1C(c2ccc(F)cc2)=NC(C(F)(F)F)(C(F)(F)F)C1CC(=O)c1ccc(F)cc1 (stereo not given)
The melting point of the first is higher: 157 °C for the first, 145 to 147 °C for the second.

Compared with `Cc1[nH]cnc1CC1CCc2[nH]c3c(F)cccc3c2C1=O` (stereo not given), `O=c1oc2c(c(O)c1-c1ccc(F)cc1)CCCC2` is higher in melting point: 135 to 140 °C for the first, 272 °C for the second.

Compared with `COC(=O)Nc1nc2cc(C)[nH]c2c(=O)[nH]1`, `COC(=O)c1ccc(O)c(N)c1C(=O)OC` is lower in melting point: 234 to 236 °C for the first, 112 to 113 °C for the second.

Compared with `CC(C)CCSc1cc(C(=O)O)cc(S(N)(=O)=O)c1-c1ccccc1`, `Cc1ccc(SCCC(=O)c2cc(O)c(O)c([N+](=O)[O-])c2)cc1` is higher in melting point: 70 to 74 °C for the first, 160 to 161 °C for the second.

Compared with `COc1ccc(N2C(=O)O[C@H](CO)[C@@H]2C)cc1`, `CCC(C)(C)NC(=O)c1ccc(S(=O)(=O)Cl)c(OC)c1` is higher in melting point: 99 to 101 °C for the first, 104 °C for the second.

Compared with `CCC(CC)(CC)NC(=S)Nc1cc(Cl)cc(Cl)c1`, `CN(C)CCC=Cc1ccc2c(c1)CCCN2C(=O)c1ccc(-c2ccc(Cl)cc2)cc1` is lower in melting point: 152 to 154 °C for the first, 142 to 144 °C for the second.

First: CN(C(N)=O)c1nc(Cl)nc(Cl)n1
Second: O=C(C=Cc1ccco1)Nc1nnn[nH]1
The melting point of the first is lower: 172 to 174 °C for the first, 287 to 289 °C for the second.

First: CS(=O)CCCn1cnc(-c2ccc(F)cc2)c1-c1ccncc1 (racemic)
Second: COC(=O)COc1ccc2cc(-c3cnc(Cc4ccc5ccccc5c4)o3)ccc2c1
The melting point of the first is lower: 122 to 123 °C for the first, 147 to 149 °C for the second.

Compared with `CC(O)C1CCC2C3CCC4=CC(=O)CCC4(C)C3CCC12C` (stereo not given), `CO[C@H]1CN(c2c(F)c(N)c3c(=O)c(C(=O)O)cn(C4CC4)c3c2F)C[C@H]1N` (relative stereo) is higher in melting point: 163 to 166 °C for the first, 222 to 223 °C for the second.

First: CCCCCCCCCCOc1cc(N)cc(OCCCCCCCCCC)c1
Second: CC(=O)Oc1cccc(C(=O)NCCO[N+](=O)[O-])c1
The melting point of the first is lower: 48 to 50 °C for the first, 89 to 91 °C for the second.

First: C=C[C@H]1CC(C(=O)OC)=C[C@@H](OC(C)C)[C@@H]1NC(C)=O
Second: COC(=O)c1ccc(C)c(SC(=O)c2ccc3c(c2)C(C)(C)CCC3(C)C)c1
The melting point of the first is higher: 132 to 133 °C for the first, 120 °C for the second.

Compared with `CC(C)N1c2ccccc2N(C(C)C)c2ccccc21`, `CC(C)(C)OC(=O)N1CCCC(CO)(c2ccccc2)C1` (stereo not given) is higher in melting point: 80 to 81 °C for the first, 101 to 104 °C for the second.

First: N#Cc1ccc(F)c(C(c2cc(N)ncc2Cl)S(=O)(=O)c2ccc(Cl)cc2)c1 (stereo not given)
Second: Cn1c(=O)oc2cc(C(O)CBr)cnc21 (stereo not given)
The melting point of the first is higher: > 220 °C for the first, 127 to 129 °C for the second.
